Test results as given in publication PMC12565843, “Phenolic Compounds from Hypericum cerastoides (Spach) N. Robson: Dereplication via UHPLC-HRMS/MS, Isolation, Identification, and Preliminary Biological Evaluation Focusing on Radical-Scavenging, Anti-α-Glucosidase, and Pro-Lipase Activities” (Metabolites, 2025).
Values joined by “and” are separate entries in the source; they are usually repeats but may differ in a detail not shown here. Identical values can stand only once.

Experiments:
[1] = DPPH radical-scavenging activity assay; details: compounds and controls at 100 µM in EtOH, 30 min, 517 nm; mean ± SD
Experimental: The scavenging activity of phenolic compounds against DPPH radicals was assessed using Kokanova-Nedialkova and Nedialkov methods, with some modifications. Briefly, 300 µL of each compound in EtOH (100 µM) was mixed with 300 µL of DPPH ethanol solution (100 µM). The reaction mixture was thoroughly vortexed and left in the dark at room temperature for 30 min. The absorbance of the mixture was measured at 517 nm. The following equation calculates the ability to scavenge DPPH radicals: %DPPH radical scavenging activity=Abscontrol−Abssample/Abscontrol×100, where Abscontrol is the absorbance of the DPPH radical in EtOH, and Abssample is the absorbance of the DPPH radical solution mixed with a sample.
Positive controls were vitamin C (100 µM) and Trolox (100 µM).

[2] = ABTS radical-scavenging activity assay; details: compounds and controls at 100 µM in EtOH, 7 min, 734 nm, mean ± SD
Experimental: For ABTS assay, the procedure followed the method of Kokanova-Nedialkova and Nedialkov with some modifications. The stock solutions included 7 mM ABTS and 2.4 mM potassium persulfate. The working solution was then prepared by mixing the two stock solutions in equal quantities and allowing them to react for 12–14 h at room temperature in the dark. The solution was then diluted by mixing 1 mL of the ABTS solution with 30 mL of ethanol. A fresh ABTS solution was prepared for each assay. Furthermore, 300 µL of each compound in EtOH (100 µM) was allowed to react with 1 mL of the ABTS solution, and the absorbance was taken at 734 nm after 7 min using a spectrophotometer. The ABTS scavenging capacity of the compound was calculated as: %ABTS radical scavenging activity=Abscontrol−Abssample/Abscontrol×100 where Abscontrol is the absorbance of the ABTS radical in ethanol, and Abssample is the absorbance of an ABTS radical solution mixed with a sample.
Vitamin C (100 µM) and Trolox (100 µM) were used as positive controls.

α-glucosidase = test: Anti-α-glucosidase activity assay (LC-MS, p-nitrophenyl-α-D-glucopyranoside substrate); assay type: biochemical; details: five concentrations 1000-62.5 µM, NA = the compound is not active; for IC50: read-out: α-Glucosidase Inhibitory Activity (IC50 ± SD)
Experimental: The α-Glucosidase inhibitory activity was determined by LC-MS using p-nitrophenyl-α-D-glucopyranoside as the substrate, as described by Kokanova-Nedialkova et al.. The assay mixture (160 µL) was prepared accordingly to Kang et al. with some modifications. An aliquot of 20 µL of a sample in phosphate buffer (pH 6.8) containing 10% DMSO (or phosphate buffer containing 10% DMSO as a control), 100 µL phosphate buffer (pH 6.8), and 20 µL enzyme solution (0.2 U/mL α-glucosidase in phosphate buffer) were mixed and incubated at 37 °C for 15 min. Then, 20 µL of substrate solution (2.5 mM p-nitrophenyl-α-D-glucopyranoside, prepared in the same buffer) was added. The reaction was processed at 37 °C for 15 min and stopped by adding 840 µL acetonitrile (AcCN). The supernatant was then used for LC-MS analysis after centrifugation at 12,000 rpm for 10 min. The amount of p-nitrophenol released from p-nitrophenyl-α-D-glucopyranoside was quantified using liquid chromatography-[…] (LC-MS). The inhibitory rates (%) were calculated according to the formula: % α−Glucosidase inhibitory activity=Aк−Asample/Aк×100, where Aк is the area of the p-nitrophenol peak in the control, and Asample is the area of the p-nitrophenol peak in the sample.

[3] = biological target: T1, lipase from porcine pancreas, Type II (Sus scrofa, UniProt P00591); test: Assay for modulation of lipase activity (LC-MS, p-nitrophenyl laurate substrate); assay type: biochemical; details: for Fold increase of lipase activity compared to the control: 200 µM; for Effect on lipase activity (in words): tested at 200-12.5 µM
T1 construct: lipase from porcine pancreas, Type II; purchased Sigma-Aldrich L3126; host or cells: porcine pancreas (tissue-derived)
T1 sequence (P00591 1-450): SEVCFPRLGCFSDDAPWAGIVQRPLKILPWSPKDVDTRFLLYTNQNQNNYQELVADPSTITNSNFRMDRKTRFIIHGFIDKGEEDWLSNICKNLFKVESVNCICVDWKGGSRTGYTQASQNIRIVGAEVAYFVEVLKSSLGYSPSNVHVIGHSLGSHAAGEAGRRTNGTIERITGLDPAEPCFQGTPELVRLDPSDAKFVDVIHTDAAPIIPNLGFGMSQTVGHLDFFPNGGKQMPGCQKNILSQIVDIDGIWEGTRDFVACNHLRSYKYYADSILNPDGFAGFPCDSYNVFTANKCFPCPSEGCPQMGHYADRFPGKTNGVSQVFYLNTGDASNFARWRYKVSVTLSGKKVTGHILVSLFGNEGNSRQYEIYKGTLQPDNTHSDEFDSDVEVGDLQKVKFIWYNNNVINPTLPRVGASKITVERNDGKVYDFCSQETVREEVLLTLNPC
Experimental: This assay was adapted from previous reports for the determination of anti-lipase and pro-lipase activity by LC-MS [14]. Briefly, lipase from porcine pancreas, Type II (Sigma-Aldrich, St. Louis, MA, USA, product L3126), was dissolved in ultra-pure water at a 5 mg/mL concentration. The supernatant was then used after centrifugation at 15,000 rpm for 10 min. The assay buffer was 100 mM Tris buffer (pH 8.2), and p-nitrophenyl laurate was used as the substrate. The substrate stock was 2 mg p-nitrophenyl laurate dissolved in 1 mL isopropanol and 4 mL 5 mM sodium acetate (pH 5.0) containing 1% Triton X-100 (Fisher Scientific, Bridgewater, NJ, USA). The mixture was heated to facilitate dissolution, thoroughly mixed, and then cooled to room temperature. The assay mixture (1 mL) contained 20 µL of a sample in DMSO (or DMSO as a control), 860 µL of Tris buffer (pH 8.2), and 30 µL of enzyme solution. The mixture was combined, shaken, and incubated at 37 °C for 15 min. Then, 90 µL of substrate solution was added and shaken again. The reaction was processed at 37 °C for 2 h and stopped by adding 800 µL CH3CN to 200 µL of the assay mixture. The supernatant was then used for LC-MS analysis after centrifugation at 15,000 rpm for 10 min. The amount of p-nitrophenol released from p-nitrophenyl laurate was quantified using LC-MS. Lipase inhibitory activity (%) was calculated according to the formula: % Lipase inhibitory activity=Aк−Asample/Aк×100, where Aк is the area of the p-nitrophenol peak in the control, and Asample is the area of the p-nitrophenol peak in the sample.
Pro-lipase activity (%) was calculated according to the formula: % Prolipase activity=Asample−Ak/Aк×100, where Aк is the area of the p-nitrophenol peak in the control, and Asample is the area of the p-nitrophenol peak in the sample.

Row | IC50 (α-glucosidase) [µM] | Fold increase of lipase activity compared to the control [3] | Effect on lipase activity (in words) [3] | Compound | DPPH % (radical-scavenging activity) [1] | ABTS % (radical-scavenging activity) [2] | α-Glucosidase Inhibitory Activity (IC50 ± SD) (α-glucosidase) | ABTS % (radical-scavenging activity) ([2]; listed as Vitamin C) [%]
1 | 206 ± 13 | fivefold | do not inhibit lipase activity | O=c1c(OC2OC(CO)C(O)C(O)C2O)c(-c2cc(O)c(O)c(O)c2)oc2cc(O)cc(O)c12 (centres unmarked) [HC3, myricetin-3-O-galactoside] | 82.70% and 82.70 ± 0.34% | 96.04% and 96.04 ± 0.37% | – | –
2 | – | – | do not inhibit lipase activity | COC(=O)C1(O)CC(O)C(O)C(OC(=O)C=Cc2ccc(O)c(O)c2)C1 (centres unmarked) [HC5, methyl ester of chlorogenic acid] | 84.57% and 84.57 ± 0.27% | 71.27% and 71.27 ± 0.08% | did not exhibit measurable inhibitory activity | –
3 | – | fivefold | do not inhibit lipase activity | O=c1c(OC2OC(CO)C(O)C(O)C2O)c(-c2cc(O)c(O)c(O)c2)oc2cc(O)cc(O)c12 (centres unmarked) [HC2, myricetin-3-O-glucoside] | 84.32% and 84.32 ± 0.23% | 97.23% and 97.23 ± 0.45% | did not exhibit measurable inhibitory activity | –
4 | 371 ± 9 | – | do not inhibit lipase activity | CC(C)C1CC(OC2OC(COC(=O)C=Cc3ccc(O)cc3)C(O)C(O)C2O)CC(=O)O1 [HC6, 4-O-{6-[(2E)-p-Hydroxycinnamoyl]-β-D-Glucopyranosyl}-6-isopropyl-tetrahydro-2H-pyran-2-one] | 15.93% and 15.93 ± 0.33% | 25.50% and 25.50 ± 0.12% | – | –
5 | 44 ± 5 | – | do not inhibit lipase activity | O=C(C=Cc1ccc(O)cc1)OC1CC(O)(C(=O)O)CC(O)C1O (centres unmarked) [HC1, coumaroylquinic acid] | 18.95% and 18.95 ± 0.36% | 22.12% and 22.12 ± 0.63% | – | –

The remaining lines, values behind:

Row | Compound | IC50 (α-glucosidase) [µM] | Fold increase of lipase activity compared to the control [3] | Effect on lipase activity (in words) [3] | DPPH % (radical-scavenging activity) [1] | ABTS % (radical-scavenging activity) [2] | α-Glucosidase Inhibitory Activity (IC50 ± SD) (α-glucosidase) | ABTS % (radical-scavenging activity) ([2]; listed as Vitamin C) [%]
6 | CC(=O)OC1C(Oc2cc(O)cc(O)c2C(=O)c2ccccc2)OC(CO)C(O)C1O [HC4, 4,6-Dihydroxy Benzophenone-2-O-β-D-2″-Acetylglucopyranoside] | – | – | did not show any significant effect on lipase activity | 14.63% and 14.63 ± 0.50% | 70.20% and 70.20 ± 0.23% | did not exhibit measurable inhibitory activity | –
7 | O=C1O[C@H]([C@@H](O)CO)C(O)=C1O [Vit C, reference compound] | – | – | – | 59.44 ± 0.42% | 66.21 ± 0.45% | – | 66.21
8 | COC(=O)CC(CC(O)C(C)C)O[C@@H]1O[C@H](COC(=O)/C=C/c2ccc(O)cc2)[C@@H](O)[C@H](O)[C@H]1O (stereo partly drawn) [HC7, Methyl 3-O-{6-[(2E)-p-hydroxycinnamoyl]-β-glucopyranosyl}-6-methyl-5-hydroxyheptanoate] | – | – | did not show any significant effect on lipase activity | 11.48% and 11.48 ± 0.21% | 26.88% and 26.88 ± 0.33% | did not exhibit measurable inhibitory activity | –
9 | Cc1c(C)c2c(c(C)c1O)CCC(C)(C(=O)O)O2 (centres unmarked) [Trolox, reference compound] | – | – | – | 88.33 ± 0.33% | 94.16% and 94.16 ± 0.32% | – | –
